Laboratory results: PubChem BioAssay (NCI)
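Briefly, cells in 96-well plates were exposed to five compound concentrations for 48 h, and endpoints were estimated by linear interpolation. GI50 is the concentration that inhibits growth by half. TGI is the concentration that stops growth completely.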

Experiments:
Assay in all cases: NCI anticancer screen, dose series, 48 h
SNB-75 CNS = tested on: SNB-75 CNS
MALME-3M melanoma = tested on: MALME-3M melanoma
HT29 colon = tested on: HT29 colon
SNB-19 CNS = tested on: SNB-19 CNS
MOLT-4 leukemia = tested on: MOLT-4 leukemia
SN12C renal = tested on: SN12C renal
SK-MEL-2 melanoma = tested on: SK-MEL-2 melanoma
BT-549 breast = tested on: BT-549 breast
MCF7 breast = tested on: MCF7 breast
SW-620 colon = tested on: SW-620 colon

SMILES	GI50 (SNB-75 CNS)	TGI (SNB-75 CNS)	GI50 (MALME-3M melanoma)	TGI (MALME-3M melanoma)	GI50 (HT29 colon)	TGI (HT29 colon)	GI50 (SNB-19 CNS)	TGI (SNB-19 CNS)	GI50 (MOLT-4 leukemia)	TGI (MOLT-4 leukemia)	GI50 (SN12C renal)	TGI (SN12C renal)	GI50 (SK-MEL-2 melanoma)	TGI (SK-MEL-2 melanoma)	GI50 (BT-549 breast)	TGI (BT-549 breast)	GI50 (MCF7 breast)	TGI (MCF7 breast)	GI50 (SW-620 colon)	TGI (SW-620 colon)
Cc1ccc(NC2=CC(=O)C(=O)c3ccccc32)c(C)c1	1.57 µM	3.49 µM	1.76 µM	3.78 µM	2.51 µM	7.08 µM	3.88 µM	15 µM	2.88 µM	16.6 µM	2.81 µM	9.17 µM	2.29 µM	6.4 µM	2.17 µM	7.2 µM	0.905 µM	4.77 µM	3.26 µM	12.8 µM
CC(C)C/C(=N\NC(=O)c1ccncc1)c1cc(Cl)ccc1O	11.6 µM	> 100 µM	1.65 µM	16.7 µM	0.441 µM	> 100 µM	1.66 µM	> 100 µM	0.29 µM	20.8 µM	0.619 µM	> 52.5 µM	1.87 µM	31.9 µM	0.922 µM	> 25.6 µM	0.484 µM	12.3 µM	0.677 µM	> 100 µM
O=C(/C=C/c1cccc(Oc2ccc(Cl)cc2)c1)c1ccccc1	124 µM	269 µM	38.3 µM	175 µM	26.2 µM	61.6 µM	35.3 µM	111 µM	30.8 µM	–	28.4 µM	78.4 µM	148 µM	336 µM	31.6 µM	97.5 µM	26.9 µM	118 µM	22.6 µM	49.4 µM
C=CC[PH+](c1ccccc1)c1ccccc1.C=CC[PH+](c1ccccc1)c1ccccc1.[Pt+2].[S-]c1ncccn1.[S-]c1ncccn1	8.25 µM	> 100 µM	2.5 µM	10.4 µM	13.5 µM	> 100 µM	58.9 µM	> 100 µM	3.26 µM	> 100 µM	13.5 µM	48.6 µM	47.4 µM	> 100 µM	25.1 µM	> 100 µM	4.8 µM	> 100 µM	4.75 µM	29.7 µM
